The test system of this assay is NCI-H358(KRAS^G12C mutation) cells. The assay can be described thus: Cell assay of antiproliferative activity (Celltiter-Glo, 5 days) against NCI-H358 cells. The following applies: 5 days incubation. Format: cell-based. On the procedure: Cell assay of antiproliferative activity of compounds against NCI-H358(KRAS^G12C mutation) and A549(KRAS^G12S mutation) cells.
40 μl phosphate buffer was added to the outer wells of the 384 microplate, and 40 μl cell suspension to be tested was added to the other wells. Then the microplate was incubated in a carbon dioxide incubator overnight.
The compounds to be tested were gradiently diluted, each compound was performed 10 concentration gradients (diluted from 50 μM to 0.003 μM) and added 100 nL to the corresponding wells in the microplate. After addition, 40 μl of phosphate buffer was added to each well in rows A and P and columns 1 and 24, and then the microplate was incubated in a carbon dioxide incubator for 5 days.
20 μL of Promega Celltiter-Glo reagent was added to each well of the microplate, and then the luminescence signal was stabilized by oscillating at room temperature for 10 min. Then PekinElmer Envision multi-label analyzer was used to read.
Finally, GraphPad Prism software was used to calculate the IC50 value of the compound and the fitting curve was drawn.
Anti-proliferative activity of the compounds of the present invention against NCI-H358(KRAS^G12C mutation) and A549(KRAS^G12S mutation) cells were shown in Table 1.
A general note: ATP-based viability assays read luminescence as a measure of living cells.

`[2H]C([2H])([2H])N(CC1(COc2nc3c(c(N4CCN(C(=O)C(=C)F)[C@@H](CC#N)C4)n2)CCN(c2cccc4cccc(Cl)c24)C3)CC1)C([2H])([2H])[2H]` [Example 45] had an IC50 (Homo sapiens, NCI-H358, 120 h) of 49 nM.
For the molecule `C=C(F)C(=O)N1CCN(c2nc(OCC3(COC)CN(C)C3)nc3c2CCN(c2cccc4cccc(Cl)c24)C3)C[C@@H]1CC#N` [Example 46], the IC50 (Homo sapiens, NCI-H358, 120 h) came out at 37 nM.
For `C=C(F)C(=O)N1CCN(c2nc(OCC3(C(C)N(C)C)CC3)nc3c2CCN(c2cccc4cccc(Cl)c24)C3)C[C@@H]1CC#N` (stereo partly drawn) [Example 47A, 2-((2S)-4-(7-(8-chloronaphthalen-1-yl)-2-((1-(1-(dimethylamino)ethyl)cyclopropyl)methoxy)-5,6,7,8-tetrahydropyrido[3,4-d]pyrimidin-4-yl)-1-(2-fluoroacroloyl)piperazin-2-yl) acetonitrile], the IC50 worked out at 100 nM.
As for `C=C(F)C(=O)N1CCN(c2nc(OCC3(C(C)N(C)C)CC3)nc3c2CCN(c2cccc4cccc(Cl)c24)C3)C[C@@H]1CC#N` (stereo partly drawn) [Example 47B, 2-((2S)-4-(7-(8-chloronaphthalen-1-yl)-2-((1-(1-(dimethylamino)ethyl)cyclopropyl)methoxy)-5,6,7,8-tetrahydropyrido[3,4-d]pyrimidin-4-yl)-1-(2-fluoroacroloyl)piperazin-2-yl) acetonitrile], the IC50 is 71 nM.
In the case of `C=C(F)C(=O)N1CCN(c2nc(OCC3(CN4CCC4)CC3)nc3c2CCN(c2cccc4cccc(Cl)c24)C3)C[C@@H]1CC#N` [Example 48], the IC50 (Homo sapiens, NCI-H358, 120 h) turned out to be 65 nM.
For the setting “Homo sapiens, NCI-H358, 120 h”, `CC#CC(=O)N1CCN(c2nc(OCC3(CN(C)C)CC3)nc3c2CCN(c2cccc4cccc(Cl)c24)C3)C[C@@H]1CC#N` [Example 49, (S)-2-(1-(but-2-ynoyl)-4-(7-(8-chloronaphthalen-1-yl)-2-((1-((dimethylamino)methyl)cyclopropyl)methoxyl)-5,6,7,8-tetrahydropyrido[3,4-d]pyrimidin-4-yl)piperazin-2-yl) acetonitrile] gave a half-inhibitory concentration (IC50) of 43 nM.
Regarding `C=CC(=O)N1CCN(c2nc(OCC3(CN(C)C)CC3)nc3c2CCN(c2cccc4cccc(Cl)c24)C3)[C@@H](C)C1` [Example 50, (S)-1-(-4-(7-(8-chloronaphthalen-1-yl)-2-((1-((dimethylamino)methyl)cyclopropyl)methoxyl)-5,6,7,8-tetrahydropyrido[3,4-d]pyrimidin-4-yl)-3-methylpiperazin-1-yl)prop-2-ene-1-one], the midpoint of inhibition (Homo sapiens, NCI-H358, 120 h), the IC50, lay at 300 nM.
Take `C=C(F)C(=O)N1CCN(c2nc(OCC3(CCN(C)C)CC3)nc3c2CCN(c2cccc4cccc(Cl)c24)C3)C[C@@H]1CC#N` [Example 52, (S)-2-(4-(7-(8-chloronaphthalen-1-yl)-2-((1-(2-(dimethylamino)ethyl)cyclopropyl)methoxy)-5,6,7,8-tetrahydropyrido[3,4-d]pyrimidin-4-yl)-1-(2-fluoroacroloyl)piperazin-2-yl) acetonitrile]: the IC50 (Homo sapiens, NCI-H358, 120 h) stood at 540 nM. This IC50 lies about 1.8-fold higher than the previous one.
The molecule `C=C(F)C(=O)N1CCN(c2nc(OCC3(C(C)N(C)C)CC3)nc3c2CCN(c2cccc4cccc(Cl)c24)C3)C[C@@H]1CC#N` (stereo partly drawn) [Example 53A, 2-((2S)-4-(7-(8-chloronaphthalen-1-yl)-2-(1-(1-((dimethylamino)ethyl)cyclopropyl)methoxy)-5,6,7,8-tetrahydropyrido[3,4-d]pyrimidin-4-yl)-1-(2-fluoroacroloyl)piperazin-2-yl) acetonitrile] displayed an IC50 of 1400 nM.
Turning to `C=C(F)C(=O)N1CCN(c2nc(OCC3(C(C)N(C)C)CC3)nc3c2CCN(c2cccc4cccc(Cl)c24)C3)C[C@@H]1CC#N` (stereo partly drawn) [Example 53B, 2-((2S)-4-(7-(8-chloronaphthalen-1-yl)-2-(1-(1-((dimethylamino)ethyl)cyclopropyl)methoxy)-5,6,7,8-tetrahydropyrido[3,4-d]pyrimidin-4-yl)-1-(2-fluoroacroloyl)piperazin-2-yl) acetonitrile], half-maximal inhibition (IC50) was put at 1300 nM. The IC50 values of the last two molecules are within 1.5-fold of each other.
With `C=C(F)C(=O)N1CCN(c2nc(OCC3(CN(C)CC)CC3)nc3c2CCN(c2cccc4cccc(Cl)c24)C3)C[C@@H]1CC#N` [Example 54, (S)-2-(4-(7-(8-chloronaphthalen-1-yl)-2-((1-((ethyl (methyl)amino)methyl)cyclopropyl)methoxy)-5,6,7,8-tetrahydropyrido[3,4-d]pyrimidin-4-yl)-1-(2-fluoroacroloyl)piperazin-2-yl) acetonitrile], the IC50 (Homo sapiens, NCI-H358, 120 h) turned out to be 47 nM.
Still for that read-out and setting: the value for `C=C(F)C(=O)N1CCN(c2nc(OCCN(C)C34CC(C3)C4)nc3c2CCN(c2cccc4cccc(Cl)c24)C3)C[C@@H]1CC#N` [Example 55] was 870 nM; that for `C=C(F)C(=O)N1CCN(c2nc(OCC3(CN(C)C(C)C)CC3)nc3c2CCN(c2cccc4cccc(Cl)c24)C3)C[C@@H]1CC#N` [Example 56, (S)-2-(4-(7-(8-chloronaphthalen-1-yl)-2-((1-((isopropyl(methyl)amino)methyl)cyclopropyl)methoxy)-5,6,7,8-tetrahydropyrido[3,4-d]pyrimidin-4-yl)-1-(2-fluoroacroloyl)piperazin-2-yl) acetonitrile] was 61 nM.
As for `C=C(F)C(=O)N1CCN(c2nc(OCC3(CS(C)(=O)=O)CC3)nc3c2CCN(c2cccc4cccc(Cl)c24)C3)C[C@@H]1CC#N` [Example 57, (S)-2-(4-(7-(8-chloronaphthalen-1-yl)-2-((1-((methylsulfonyl)methyl)cyclopropyl)methoxy)-5,6,7,8-tetrahydropyrido[3,4-d]pyrimidin-4-yl)-1-(2-fluoroacroloyl)piperazin-2-yl) acetonitrile], the IC50 (Homo sapiens, NCI-H358, 120 h) worked out at 1300 nM.
On the same count and under the same terms, with `C=C(F)C(=O)N1CCN(c2nc(OCC3(CN4CCC4)CC3)nc3c2CCN(c2cccc4ccc(F)c(Cl)c24)C3)C[C@@H]1CC#N` [Example 58, (S)-2-(4-(2-((1-(azetidin-1-ylmethyl)cyclopropyl)methoxy)-7-(8-chloro-7-fluoronaphthalen-1-yl)-5,6,7,8-tetrahydropyrido[3,4-d]pyrimidin-4-yl)-1-(2-fluoroacroloyl)piperazin-2-yl) acetonitrile] the figure was 65 nM; with `C=C(F)C(=O)N1CCN(c2nc(OCC3(CN4CC(F)(F)C4)CC3)nc3c2CCN(c2cccc4ccc(F)c(Cl)c24)C3)C[C@@H]1CC#N` [Example 59], 810 nM.
Take `C=C(F)C(=O)N1CCN(c2nc(OCC3(CN(CC)CC)CC3)nc3c2CCN(c2cccc4ccc(F)c(Cl)c24)C3)C[C@@H]1CC#N` [Example 60, (S)-2-(4-(7-(8-chloro-7-fluoronaphthalen-1-yl)-2-((1-((diethylamino)methyl)cyclopropyl)methoxy)-5,6,7,8-tetrahydropyrido[3,4-d]pyrimidin-4-yl)-1-(2-fluoroacroloyl)piperazin-2-yl) acetonitrile]: the midpoint of inhibition (Homo sapiens, NCI-H358, 120 h), the IC50, lay at 92 nM.
On the same count and under the same terms, with `C=C(F)C(=O)N1CCN(c2nc(OCC3(CN(C)C(C)C)CC3)nc3c2CCN(c2cccc4ccc(F)c(Cl)c24)C3)C[C@@H]1CC#N` [Example 61, (S)-2-(4-(7-(8-chloro-7-fluoronaphthalen-1-yl)-2-((1-((isopropyl(methyl)amino)methyl)cyclopropyl)methoxy)-5,6,7,8-tetrahydropyrido [3,4-d]pyrimidin-4-yl)-1-(2-fluoroacroloyl)piperazin-2-yl) acetonitrile] the figure was 110 nM; with `C=C(F)C(=O)N1CCN(c2nc(OCC3(CN(C)CC)CC3)nc3c2CCN(c2cccc4ccc(F)c(Cl)c24)C3)C[C@@H]1CC#N` [Example 62, (S)-2-(4-(7-(8-chloro-7-fluoronaphthalen-1-yl)-2-((1-((ethyl(methyl)amino)methyl)cyclopropyl)methoxy)-5,6,7,8-tetrahydropyrido[3,4-d]pyrimidin-4-yl)-1-(2-fluoroacroloyl)piperazin-2-yl) acetonitrile], 36 nM.
Still for that read-out and setting: with `[2H]C([2H])([2H])N(CC1(COc2nc3c(c(N4CCN(C(=O)C(=C)F)[C@@H](CC#N)C4)n2)CCN(c2cccc4ccc(F)c(Cl)c24)C3)CC1)C([2H])([2H])[2H]` [Example 63] the figure was 7 nM; with `C=C(F)C(=O)N1CCN(c2nc(OCC3(CN4CC(F)C4)CC3)nc3c2CCN(c2cccc4ccc(F)c(Cl)c24)C3)C[C@@H]1CC#N` [Example 65, (S)-2-(4-(7-(8-chloro-7-fluoronaphthalen-1-yl)-2-((1-((3-fluoroazetidin-1-yl)methyl)cyclopropyl)methoxy)-5,6,7,8-tetrahydropyrido[3,4-d]pyrimidin-4-yl)-1-(2-fluoroacroloyl)piperazin-2-yl) acetonitrile], 45 nM; with `C=C(F)C(=O)N1CCN(c2nc(OCC3(CN4CC(F)C4)CC3)nc3c2CCN(c2cccc4ccc(F)cc24)C3)C[C@@H]1CC#N` [Example 66], 180 nM.
The same measure, in the same setting: with `C=C(F)C(=O)N1CCN(c2nc(OCC3(CN4CC(C)C4)CC3)nc3c2CCN(c2cccc4ccc(F)c(Cl)c24)C3)C[C@@H]1CC#N` [Example 67, (S)-2-(4-(7-(8-chloro-7-fluoronaphthalen-1-yl)-2-((1-((3-methylazetidin-1-yl)methyl)cyclopropyl)methoxy)-5,6,7,8-tetrahydropyrido[3,4-d]pyrimidin-4-yl)-1-(2-fluoroacroloyl)piperazin-2-yl) acetonitrile] the figure was 51 nM; with `C=C(F)C(=O)N1CCN(c2nc(OCC3(CN4CC(O)C4)CC3)nc3c2CCN(c2cccc4ccc(F)c(Cl)c24)C3)C[C@@H]1CC#N` [Example 68, (S)-2-(4-(7-(8-chloro-7-fluoronaphthalen-1-yl)-2-((1-((3-hydroxyazetidin-1-yl)methyl)cyclopropyl)methoxy)-5,6,7,8-tetrahydropyrido [3,4-d]pyrimidin-4-yl)-1-(2-fluoroacroloyl)piperazin-2-yl) acetonitrile], 86 nM.

As usually defined, the IC50 is the point on the concentration scale where inhibition reaches its midpoint. Lower therefore signals inhibition by little substance.

Values taken from patent US11459327B1, “Cycloalkyl and hetero-cycloalkyl inhibitors, preparation methods therefor, and use thereof” (Suzhou Zelgen Biopharmaceuticals Co., Ltd., priority 2019, dated 2022).
